Experimental data: patent US20100285959A1, “HERBICIDAL MIXTURES” (priority 2006, published 2010)

Assays:
[1] = test system: winter wheat (TRZAW); experiment: Test 20 growth chamber, postemergence; format: in vivo, Triticum aestivum; conditions: 25 DAA
Protocol: A test was conducted to evaluate the effects on winter barley (HORVW, Hordeum vulgare L.) and winter wheat (TRZAW, Triticum aestivum L.) of mixtures of Compound 2 with the commercial herbicides (2,4-dichlorophenoxy)acetic acid (2,4-D) and (4-chloro-2-methylphenoxy)acetic acid (MCPA), auxin mimics. […] Plants were treated postemergence at the 2-leaf growth stage, and each treatment was replicated a total of four times (three times in the loam/sand blend and one time in RediEarth). […] Plants were watered as needed. […] Results are the means of the four replicates.

[2] = test system: wild chamomile (MATCH); experiment: Test 21 growth chamber, postemergence; format: in vivo, Matricaria chamomilla; conditions: 19 DAA
Protocol: (§1) A test was conducted to evaluate the effects on winter barley (HORVW, Hordeum vulgare L.), winter wheat (TRZAW, Triticum aestivum L.), and several weed species, of mixtures of Compound 2 with the commercial herbicide (2,4-dichlorophenoxy)acetic acid (2,4-D), an auxin mimic. […] Plants were treated postemergence at the 2-4 leaf growth stage, and each treatment was replicated one time. […] Plants were watered as needed. […] Results are from single replicates.

[3] = test system: winter barley (HORVW); experiment: Test 23 growth chamber, postemergence; format: in vivo, Hordeum vulgare; conditions: 21 DAA
Protocol: as §1, with “species” for “species,”, “herbicides” for “herbicide”, “(2,4-D) and (4-chloro-2-methylphenoxy)acetic acid (MCPA),” for “(2,4-D), an”, “mimics.” for “mimic.”, “three times.” for “one time.”, “means of the three” for “from single”

[4] = test system: galium (GALAP); experiment: Test 23 growth chamber, postemergence; format: in vivo, Galium aparine; conditions: 21 DAA
Protocol: as §1, with “species” for “species,”, “herbicides” for “herbicide”, “(2,4-D) and (4-chloro-2-methylphenoxy)acetic acid (MCPA),” for “(2,4-D), an”, “mimics.” for “mimic.”, “three times.” for “one time.”, “means of the three” for “from single”

[5] = test system: wild buckwheat (POLCO); experiment: Test 23 growth chamber, postemergence; format: in vivo, Polygonum convolvulus; conditions: 21 DAA
Protocol: as §1, with “species” for “species,”, “herbicides” for “herbicide”, “(2,4-D) and (4-chloro-2-methylphenoxy)acetic acid (MCPA),” for “(2,4-D), an”, “mimics.” for “mimic.”, “three times.” for “one time.”, “means of the three” for “from single”

[6] = test system: common lambsquarters (CHEAL); experiment: Test 2 field trial, preemergence; format: in vivo, Chenopodium album; parameters: scale not given here; conditions: 28 DAA
Excerpt: Corn seeds (hybrid ‘Pioneer 31G96’) were planted in mid spring season, 3.8 cm deep in a clay loam soil having 2% organic matter and a pH of 6.6. Plots were 6.1 m long by 3.0 m wide with rows spaced 76 cm apart. Seeds were spaced 15 cm apart within the rows. The field was managed using conventional tillage practices. […] A few of the weed species could not be evaluated at every timing. […] Results are the means of the three replicates.

[7] = test system: slender amaranth (AMAVI); experiment: Test 12 field trial, preemergence; format: in vivo, Amaranthus viridis; parameters: scale not given here; conditions: Cpd 2 or Cpd 1 62 g a.i./ha, Diuron 2000 g a.i./ha
Excerpt: (§2) In early-mid spring season, corn seeds (hybrid ‘Pioneer 3041’) were planted 5 cm deep and sugarcane nodes (variety RB-72.454) were planted 10 cm deep in separate plots in a clay soil having 2.6% organic matter and a pH of 5.6. Plots were 24 m long by 1.5 m wide with rows spaced 80 cm (corn) or 140 cm (sugarcane) apart. Corn seeds were spaced 15 cm apart and sugarcane nodes were spaced 10 cm apart within the rows. At the same time, weed seeds were broadcast over the surface of separate plots without a crop, one weed species per plot. The weed plots were rotary tilled to incorporate the weed seeds to a variety of depths. The field was managed using conventional tillage practices.

[8] = test system: tropical spiderwort (COMBE); experiment: Test 12 field trial, preemergence; format: in vivo, Commelina benghalensis; parameters: scale not given here; conditions: Cpd 2 or Cpd 1 62 g a.i./ha, Diuron 2000 g a.i./ha
Excerpt: as §2

[9] = test system: arrowleaf sida (SIDRH); experiment: Test 12 field trial, preemergence; format: in vivo, Sida rhombifolia; parameters: scale not given here; conditions: Cpd 2 or Cpd 1 62 g a.i./ha, Diuron 2000 g a.i./ha
Excerpt: as §2

[10] = test system: ivyleaf morningglory (IPOHE); experiment: Test 14 field trial, preemergence, growth as percent of control; format: in vivo, Ipomoea hederacea; conditions: 28 DAA
Excerpt: (§3) Corn seeds (hybrid ‘Pioneer 31G96 RR’) were planted in mid spring season, 3.8 cm deep in a clay loam soil having 2% organic matter and a pH of 6.6. Plots were 6.1 m long by 3.0 m wide with rows spaced 76 cm apart. Seeds were spaced 15 cm apart within the rows. The field was managed using conventional tillage practices. […] Yellow nutsedge was only evaluated 19 and 28 days after application, and ivyleaf morningglory could only be evaluated 28 days after application. […] Results are the means of the three replicates. This growth inhibition data was converted to results in the form of “plant growth as a percent of control plant growth” using the calculation “100 minus growth inhibition”. […] For “growth as a percent of control” data, Colby's Equation calculates the expected additive effect of herbicidal mixtures having two active ingredients as follows:
(§4) Ga+b=GaGb/100 • wherein Ga+b is the growth as a percent of control of plants treated with the mixture expected from additive contribution of the individual components, • Ga is the observed growth as a percent of control of plants treated with the first active ingredient at the same use rate as in the mixture, and • Gb is the observed growth as a percent of control of plants treated with the second active ingredient at the same use rate as in the mixture. For mixtures having three active ingredients, Colby's Equation to calculate the expected additive effect of herbicidal mixtures is as follows:
(§5) Ga+b+c=GaGbGc/10,000 • wherein Ga and Gb are as defined above and • Ga+b+c is the growth as a percent of control of plants treated with the mixture expected from additive contribution of the individual components, and • Gc is the observed growth as a percent of control of plants treated with the third active ingredient at the same use rate as in the mixture. When these two forms of Colby's Equation are used, if the observed effects on weeds are less than the expected values, the mixture is synergistic.

[11] = test system: giant foxtail (SETFA); experiment: as above; format: in vivo, Setaria faberi
Excerpt: as §3, §4, §5

[12] = 2,4-D or MCPA alone 250 g a.i./ha
[13] = g a.i./ha: Cpd 2 25, Atrazine 250
[14] = g a.i./ha: Cpd 2 50, Atrazine 500
[15] = g a.i./ha: Cpd 2 75, Atrazine 750
[16] = g a.i./ha: Cpd 2 100, Atrazine 1000
[17] = g a.i./ha: Cpd 2 150, Atrazine 1500

O=C(O)COc1ccc(Cl)cc1Cl [2,4-D, (2,4-dichlorophenoxy)acetic acid]
Postemergence TRZAW Obs [1, 12]: 18 | Postemergence MATCH Obs ([2]; 2,4-D alone 125 g a.i./ha): 40 | Postemergence MATCH Obs ([2]; 2,4-D alone 250 g a.i./ha): 45 | Postemergence HORVW Obs [3, 12]: 25 | Postemergence GALAP Obs [4, 12]: 33 | Postemergence POLCO Obs [5, 12]: 58

CCNc1nc(Cl)nc(NC(C)C)n1 [Atrazine, atrazine, reference compound]
CHEAL Obs [6, 13]: 100 | CHEAL Obs [6, 14]: 100 | CHEAL Obs [6, 15]: 100 | CHEAL Obs [6, 16]: 100 | CHEAL Obs [6, 17]: 100

Nc1nc(C2CC2)nc(C(=O)O)c1Cl [Compound 1, 6-amino-5-chloro-2-cyclopropyl-4-pyrimidinecarboxylic acid]
AMAVI Obs ([7]; 15 DAA): 90 | AMAVI Obs ([7]; 29 DAA): 60 | AMAVI Obs ([7]; 48 DAA): 40 | AMAVI Obs ([7]; 61 DAA): 40 | COMBE Obs ([8]; 15 DAA): 60 | COMBE Obs ([8]; 29 DAA): 40 | COMBE Obs ([8]; 48 DAA): 40 | COMBE Obs ([8]; 61 DAA): 0 | SIDRH Obs ([9]; 15 DAA): 60 | SIDRH Obs ([9]; 29 DAA): 95 | SIDRH Obs ([9]; 48 DAA): 100 | SIDRH Obs ([9]; 61 DAA): 95

COC(=O)c1nc(C2CC2)nc(N)c1Cl [Compound 2, methyl 6-amino-5-chloro-2-cyclopropyl-4-pyrimidinecarboxylate]
CHEAL Obs [6, 13]: 90 | CHEAL Obs [6, 14]: 100 | CHEAL Obs [6, 15]: 100 | CHEAL Obs [6, 16]: 100 | CHEAL Obs [6, 17]: 100 | AMAVI Obs ([7]; 15 DAA): 90 | AMAVI Obs ([7]; 29 DAA): 60 | AMAVI Obs ([7]; 48 DAA): 40 | AMAVI Obs ([7]; 61 DAA): 0 | COMBE Obs ([8]; 15 DAA): 50 | COMBE Obs ([8]; 29 DAA): 40 | COMBE Obs ([8]; 48 DAA): 40 | COMBE Obs ([8]; 61 DAA): 40 | SIDRH Obs ([9]; 15 DAA): 40 | SIDRH Obs ([9]; 29 DAA): 90 | SIDRH Obs ([9]; 48 DAA): 70 | SIDRH Obs ([9]; 61 DAA): 60 | Obs growth % of control ([10]; 75 g a.i./ha): 0% | Obs growth % of control ([10]; 100 g a.i./ha): 0% | Obs growth % of control ([11]; 19 DAA, 75 g a.i./ha): 58% | Obs growth % of control ([11]; 19 DAA, 100 g a.i./ha): 48% | Obs growth % of control ([11]; 28 DAA, 75 g a.i./ha): 68% | Obs growth % of control ([11]; 28 DAA, 100 g a.i./ha): 67% | Obs growth % of control ([11]; 56 DAA, 75 g a.i./ha): 92% | Obs growth % of control ([11]; 56 DAA, 100 g a.i./ha): 97% | Postemergence TRZAW Obs ([1]; Cpd 2 alone 4 g a.i./ha): 23 | Postemergence TRZAW Obs ([1]; Cpd 2 alone 8 g a.i./ha): 28 | Postemergence TRZAW Obs ([1]; Cpd 2 alone 16 g a.i./ha): 35 | Postemergence MATCH Obs ([2]; Cpd 2 alone 16 g a.i./ha): 60 | Postemergence HORVW Obs ([3]; Cpd 2 alone 4 g a.i./ha): 32 | Postemergence HORVW Obs ([3]; Cpd 2 alone 8 g a.i./ha): 38 | Postemergence HORVW Obs ([3]; Cpd 2 alone 16 g a.i./ha): 38 | Postemergence GALAP Obs ([4]; Cpd 2 alone 4 g a.i./ha): 60 | Postemergence GALAP Obs ([4]; Cpd 2 alone 8 g a.i./ha): 72 | Postemergence GALAP Obs ([4]; Cpd 2 alone 16 g a.i./ha): 80 | Postemergence POLCO Obs ([5]; Cpd 2 alone 4 g a.i./ha): 48 | Postemergence POLCO Obs ([5]; Cpd 2 alone 8 g a.i./ha): 53 | Postemergence POLCO Obs ([5]; Cpd 2 alone 16 g a.i./ha): 55

CCc1cccc(C)c1N(C(=O)CCl)[C@@H](C)COC [S-Metolachlor, S-metolachlor, reference compound]
Obs growth % of control ([10]; 1870 g a.i./ha): 0% | Obs growth % of control ([11]; 19 DAA, 1870 g a.i./ha): 7% | Obs growth % of control ([11]; 28 DAA, 1870 g a.i./ha): 5% | Obs growth % of control ([11]; 56 DAA, 1870 g a.i./ha): 1%
